Data published in patent publication US9096548B2, “Pyrazine amide compounds” (Boehringer Ingelheim International GmbH, priority 2013, dated 2015).
Structures can show the parent of a compound that is named as a salt.

Molecular target: T1, ENaC (Epithelial Sodium Channel) (Mus musculus, UniProt Q61180+Q9WU38+Q9WU39)
T1 construct: Mouse kidney M−1 cells were cultivated in DMEM; endogenous in cells; host or cells: Mouse kidney M-1 cells, cultivated with dexamethasone on transwell filters
T1 sequence (Q61180 1-699): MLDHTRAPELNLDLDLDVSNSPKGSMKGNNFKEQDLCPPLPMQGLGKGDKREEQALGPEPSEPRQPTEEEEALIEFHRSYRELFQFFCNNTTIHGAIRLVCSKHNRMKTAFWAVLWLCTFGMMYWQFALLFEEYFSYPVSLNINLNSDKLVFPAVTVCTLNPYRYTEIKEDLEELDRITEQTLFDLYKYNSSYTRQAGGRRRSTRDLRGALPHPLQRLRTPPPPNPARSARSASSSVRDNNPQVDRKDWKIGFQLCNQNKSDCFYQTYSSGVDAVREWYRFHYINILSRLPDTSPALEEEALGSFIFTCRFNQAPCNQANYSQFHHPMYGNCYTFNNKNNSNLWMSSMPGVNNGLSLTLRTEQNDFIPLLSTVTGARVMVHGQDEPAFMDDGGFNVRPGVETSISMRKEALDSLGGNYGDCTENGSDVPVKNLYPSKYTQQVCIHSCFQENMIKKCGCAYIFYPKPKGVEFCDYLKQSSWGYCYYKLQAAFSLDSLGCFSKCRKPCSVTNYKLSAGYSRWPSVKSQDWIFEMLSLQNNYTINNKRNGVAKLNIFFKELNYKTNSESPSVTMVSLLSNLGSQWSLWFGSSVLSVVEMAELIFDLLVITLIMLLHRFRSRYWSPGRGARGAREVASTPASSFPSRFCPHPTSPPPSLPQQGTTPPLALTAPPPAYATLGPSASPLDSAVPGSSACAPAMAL
T1 sequence (Q9WU38 1-638): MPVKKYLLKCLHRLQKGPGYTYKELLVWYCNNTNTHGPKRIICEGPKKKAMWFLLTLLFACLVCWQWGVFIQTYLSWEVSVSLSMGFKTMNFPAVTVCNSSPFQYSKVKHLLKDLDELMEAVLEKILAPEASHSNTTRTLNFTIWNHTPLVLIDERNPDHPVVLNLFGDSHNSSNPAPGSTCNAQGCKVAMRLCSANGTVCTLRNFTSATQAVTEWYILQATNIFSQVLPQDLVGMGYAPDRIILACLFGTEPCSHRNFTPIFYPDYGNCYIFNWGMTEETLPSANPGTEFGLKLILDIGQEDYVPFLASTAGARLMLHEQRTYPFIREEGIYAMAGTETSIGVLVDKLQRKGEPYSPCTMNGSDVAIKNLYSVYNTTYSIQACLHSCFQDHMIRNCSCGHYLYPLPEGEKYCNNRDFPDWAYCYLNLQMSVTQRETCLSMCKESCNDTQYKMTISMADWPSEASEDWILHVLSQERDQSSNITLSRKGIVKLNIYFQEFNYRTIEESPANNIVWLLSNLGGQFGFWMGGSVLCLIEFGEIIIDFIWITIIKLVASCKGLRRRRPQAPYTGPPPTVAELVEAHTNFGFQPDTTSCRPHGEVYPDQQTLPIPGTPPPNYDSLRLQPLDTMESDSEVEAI
T1 sequence (Q9WU39 1-655): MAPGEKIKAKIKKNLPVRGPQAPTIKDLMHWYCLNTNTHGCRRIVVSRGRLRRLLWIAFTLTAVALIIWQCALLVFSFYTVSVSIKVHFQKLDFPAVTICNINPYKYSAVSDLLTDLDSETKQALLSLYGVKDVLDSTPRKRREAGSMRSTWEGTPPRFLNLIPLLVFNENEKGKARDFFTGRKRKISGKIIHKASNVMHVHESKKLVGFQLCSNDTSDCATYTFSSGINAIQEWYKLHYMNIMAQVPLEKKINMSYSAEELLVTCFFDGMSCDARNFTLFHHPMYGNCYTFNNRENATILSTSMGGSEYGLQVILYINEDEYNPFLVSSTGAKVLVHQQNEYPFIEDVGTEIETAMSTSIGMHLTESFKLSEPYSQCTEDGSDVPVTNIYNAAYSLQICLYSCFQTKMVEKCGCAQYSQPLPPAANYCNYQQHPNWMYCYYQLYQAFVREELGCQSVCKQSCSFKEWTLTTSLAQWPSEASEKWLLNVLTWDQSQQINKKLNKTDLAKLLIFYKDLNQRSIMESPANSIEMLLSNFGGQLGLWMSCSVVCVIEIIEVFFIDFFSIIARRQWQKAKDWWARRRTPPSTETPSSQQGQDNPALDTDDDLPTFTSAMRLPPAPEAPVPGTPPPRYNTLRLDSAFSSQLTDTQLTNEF
Experiment: Ussing Chamber assay (short circuit current, amiloride sensitive I_SC)
Format: cell-based
Details: Ussing chamber, mouse kidney M-1 cells, short circuit current, compound added to the apical solution; read-out: IC50
Method: The IC50 values of the example compounds given above were determined in the Ussing Chamber assay.
Ussing Chamber: Mouse kidney M−1 cells were cultivated in DMEM containing 5% FCS and 5 μM dexamethasone for 10 to 12 days on polyester transwell filters. Filters were inserted into a teflon-coated well-plate which fit into the ussing chamber system. Prior to measurement the medium of M−1 cells was replaced with Caco-2 transport buffer (Invitrogen, Germany). During measurements, the Ussing chamber temperature was kept at 37° C. Short circuit currents (I_sc) were measured in the voltage-clamp mode with the software package Lab View for data acquisition and analysis. The transepithelial electrical resistance (TEER) was determined by the application of voltage steps of ±5 mV every 5 sec. Compounds were administered at a final concentration of 3 μM or at increasing concentrations (1-3-10 μM) to the apical solution. At the end of each experiment the amiloride sensitive I_SC was measured by adding 3 μM amiloride to the apical compartment. Results are expressed as inhibition in percent of the amiloride effect or as IC50.

IC50 [µM]	SMILES
0.015	Nc1nc(N)c(C(=O)NC2CCC[N+](CCCc3ccccc3)(CCCc3ccccc3)C2)nc1Cl (stereo not drawn) [Example 10.4, 3-[(3,5-Diamino-6-chloro-pyrazine-2-carbonyl)-amino]-1,1-bis-(3-phenyl-propyl)-piperidinium chloride]
0.05	CN(C)CCNC(=O)COc1ccc(CCC[N+]2(CCCc3ccc(OCC(=O)NCCN(C)C)cc3)CCCC(NC(=O)c3nc(Cl)c(N)nc3N)C2)cc1 (stereo not drawn) [Example 6.5]
0.14	Nc1nc(N)c(C(=O)NC2CCC[N+](CCc3c[nH]c4ccccc34)(CCc3c[nH]c4ccccc34)C2)nc1Cl (stereo not drawn) [Example 10.1, 3-[(3,5-Diamino-6-chloro-pyrazine-2-carbonyl)-amino]-1,1-bis-[2-(1H-indol-3-yl)-ethyl]-piperidinium chloride]
0.098	Nc1nc(N)c(C(=O)N[C@H]2CCC[N+](CCCc3ccc(OCC(=O)N4CCN(CCO)CC4)cc3)(CCCc3ccc(OCC(=O)N4CCN(CCO)CC4)cc3)C2)nc1Cl [Example 6.54]
0.112	Nc1nc(N)c(C(=O)N[C@H]2CCC[N+](CCCc3ccc(OCC(=O)OCC4COCCN4)cc3)(CCCc3ccc(OCC(=O)OCC4COCCN4)cc3)C2)nc1Cl (stereo partly drawn) [Example 6.42]
0.085	CN(CCS(C)(=O)=O)C(=O)COc1ccc(CCC[N+]2(CCCc3ccc(OCC(=O)N(C)CCS(C)(=O)=O)cc3)CCC[C@H](NC(=O)c3nc(Cl)c(N)nc3N)C2)cc1 [Example 6.48]
0.041	CN(C)CCCN(C)C(=O)COc1ccc(CCC[N+]2(CCCc3ccc(OCC(=O)N(C)CCCN(C)C)cc3)CCCC(NC(=O)c3nc(Cl)c(N)nc3N)C2)cc1 (stereo not drawn) [Example 6.8]
0.044	COc1ccc(CCC[N+]2(CCCc3ccc(OC)cc3)CCCCC(NC(=O)c3nc(Cl)c(N)nc3N)C2)cc1 (stereo not drawn) [Example 1.3]
0.004	COc1ccc(CCC[N+]2(CCCc3ccc(OC)cc3)CCC[C@H](NC(=O)c3nc(Cl)c(N)nc3N)C2)cc1 [Example 1.4]
0.041	CN(C)C(=O)CNC(=O)COc1ccc(CCC[N+]2(CCCc3ccc(OCC(=O)NCC(=O)N(C)C)cc3)CCC[C@H](NC(=O)c3nc(Cl)c(N)nc3N)C2)cc1 [Example 6.28]
0.025	Nc1nc(N)c(C(=O)N[C@H]2CCC[N+](CCCc3ccc(OCC(=O)NCCOCCO)cc3)(CCCc3ccc(OCC(=O)NCCOCCO)cc3)C2)nc1Cl [Example 6.55]
0.028	CS(=O)(=O)CCNC(=O)COc1ccc(CCC[N+]2(CCCc3ccc(OCC(=O)NCCS(C)(=O)=O)cc3)CCC[C@H](NC(=O)c3nc(Cl)c(N)nc3N)C2)cc1 [Example 6.37]
0.012	COCCNC(=O)COc1ccc(CCC[N+]2(CCCc3ccc(OCC(=O)NCCOC)cc3)CCC[C@H](NC(=O)c3nc(Cl)c(N)nc3N)C2)cc1 [Example 6.59]
0.131	CP(C)(=O)CNC(=O)COc1ccc(CCC[N+]2(CCCc3ccc(OCC(=O)NCP(C)(C)=O)cc3)CCC[C@H](NC(=O)c3nc(Cl)c(N)nc3N)C2)cc1 [Example 6.67]
0.004	Nc1nc(N)c(C(=O)N[C@H]2CCC[N+](CCCc3ccc(OCC(=O)NCCc4ccncc4)cc3)(CCCc3ccc(OCC(=O)NCCc4ccncc4)cc3)C2)nc1Cl [Example 6.52]
0.027	CO[C@H]1COC[C@@H]1NC(=O)COc1ccc(CCC[N+]2(CCCc3ccc(OCC(=O)N[C@H]4COC[C@@H]4OC)cc3)CCC[C@H](NC(=O)c3nc(Cl)c(N)nc3N)C2)cc1 [Example 6.49]
0.07	COc1ccc(CCC[N+]2(CCCc3ccc(C(=O)NCCOCCOCCO)cc3)CCCC(NC(=O)c3nc(Cl)c(N)nc3N)C2)cc1 (stereo not drawn) [Example 5.5]

Same assay, conditions: Ussing chamber, mouse kidney M-1 cells, short circuit current; unit inferred; read-out: IC50

IC50 [µM]	SMILES
0.165	COC(=O)COc1ccc(CCC[N+]2(CCCc3ccc(OCC(=O)O)cc3)CCCC(NC(=O)c3nc(Cl)c(N)nc3N)C2)cc1 (stereo not drawn) [Example 8, 1-[3-(4-Carboxymethoxy-phenyl)-propyl]-3-[(3,5-diamino-6-chloro-pyrazine-2-carbonyl)amino]-1-[3-(4-methoxycarbonylmethoxy-phenyl)-propyl]-piperidinium trifluoroacetate]
0.37	COC(=O)COc1ccc(CCC[N+]2(CCCc3ccc(OCC(=O)NCCOCCOCCO)cc3)CCCC(NC(=O)c3nc(Cl)c(N)nc3N)C2)cc1 (stereo not drawn) [Example 8.2, 3-[(3,5-Diamino-6-chloro-pyrazine-2-carbonyl)-amino]-1-{3-[4-({2-[2-(2-hydroxy-ethoxy)ethoxy]-ethylcarbamoyl}-methoxy)-phenyl]-propyl}-1-[3-(4-methoxycarbonylmethoxy-phenyl)-propyl]-piperidinium chloride]
0.15	CCOC(=O)C[N+]1(CCCc2ccc(OC)cc2)CCCC(NC(=O)c2nc(Cl)c(N)nc2N)C1 (stereo not drawn) [Example 12, 3-[(3,5-Diamino-6-chloro-pyrazine-2-carbonyl)-amino]-1-ethoxycarbonylmethyl-1-[3-(4-methoxy-phenyl)-propyl]-piperidinium chloride]
0.021	COC(=O)C[C@@H](C[N+](C)(CCCc1ccc(OC)cc1)CCCc1ccc(OC)cc1)NC(=O)c1nc(Cl)c(N)nc1N [Example 7, {(S)-2-[(3,5-Diamino-6-chloro-pyrazine-2-carbonyl)-amino]-3-methoxycarbonyl-propyl}-bis-[3-(4-methoxy-phenyl)-propyl]-methyl-ammonium chloride]

Same assay, conditions: Ussing chamber, mouse kidney M-1 cells, short circuit current; value printed in the example text with μM; read-out: IC50

IC50 [µM]	SMILES
0.79	COc1ccc(CCC[N+]2(C)CCC(NC(=O)c3nc(Cl)c(N)nc3N)C2)cc1 (stereo not drawn) [Example 3, 3-[(3,5-Diamino-6-chloro-pyrazine-2-carbonyl)-amino]-1-[3-(4-methoxy-phenyl)-propyl]-1-methyl-pyrrolidinium chloride]
1.38	COc1ccc(CCC[N+](C)(CCCc2ccc(OC)cc2)C[C@H](CC(=O)O)NC(=O)c2nc(Cl)c(N)nc2N)cc1 [Example 7.2, {(S)-3-Carboxy-2-[(3,5-diamino-6-chloro-pyrazine-2-carbonyl)-amino]-propyl}-bis-[3-(4-methoxy-phenyl)-propyl]-methyl-ammonium]
0.35	Nc1nc(N)c(C(=O)NC2CCC[N+](CCCc3ccc(C(=O)[O-])cc3)(CCCc3ccc(C(=O)O)cc3)C2)nc1Cl (stereo not drawn) [Example 4.1, 1,1-Bis-[3-(4-carboxy-phenyl)-propyl]-3-[(3,5-diamino-6-chloro-pyrazine-2-carbonyl)amino]-piperidinium]
